Consider nine molecules from EP0033241A2, “Pharmaceutical compositions for rectal administration” (priority 1980, dated 1981).

Molecules are shown by their SMILES. Structures can show the parent of a compound that is named as a salt.

Series [1] in a line: in vivo. Set-up: species or system SD strain male rats. As to conditions: rat. An excerpt: The numeral 25 in the term "POE (25)" designates the average number of added moles of POE.
The nature of series [2]: in vivo. As to conditions: rat, im, 50 mg/kg, AUC^°6.
Series [3] in a line: AUC 0 to 4 hours of cefsulodin (sodium) suppositories with polyoxyethylene cholesterol ethers (Experiment Example 4). Format: in vivo, rats. As to conditions: rat, plasma, 20 mg/kg, rectal suppository 50 mg, 10 % cefsulodin (sodium), Witepsol H-5.
Procedure: The anuses were closed with an adhesive agent, and blood samples were taken from the tail veins with time elapsed to determine quantitatively the plasma levels of the compounds having a β-lactam ring by means of the biological assay method.
By incorporating 10 % of cefsulodin (sodium) and 5 % of polyoxyethylene cholesterol ether as shown in Table 5 into Witepsol H-5 used as an excipient, suppositories (50 mg each) were prepared, and administered rectally to rats, in the same manner as in Experiment Example 1, to determine quantitatively the concentration levels of the drug substance in plasma, thereby calculating AUC over the period of 0 to 4 hours. The dosage was 20 mg/Kg.

A word on the AUC: it is the area under the concentration-time curve, a measure of exposure. Low readings indicate less exposure, high ones more exposure. As for `CC1(C)S[C@@H]2[C@H](NC(=O)C(c3ccccc3)S(=O)(=O)O)C(=O)N2[C@H]1C(=O)O` (stereo partly shown) [Sulbenicillin, sulbenicillin], the AUC in “in vivo [1]” stood at 92800 ng·h/mL; in the series “in vivo [1]” (im), 192000 ng·h/mL. In turn, `CO/N=C(\C(=O)N[C@@H]1C(=O)N2C(C(=O)O)=C(CSc3nnnn3C)CS[C@H]12)c1csc(N)n1` [Cefmenoxime (1/2HCl), 7β-[2-(2-aminothiazol-4-yl)-[Z]-2-methoxyimino-acetamide]-3-[(1-methyl-1H-tetrazol-5-yl)thiomethyl]-ceph-3-em-4-carboxylate.l/2hydrochloride] yielded an AUC at 6 h in the series “in vivo [2]” of 190000 ng·h/mL. In addition, the area under the curve (AUC) in “in vivo [1]” (im) is 190000 ng·h/mL. The molecule `CC1(C)S[C@@H]2[C@H](/N=C/N3CCCCCC3)C(=O)N2[C@H]1C(=O)O` [Mecillinam, 6a-[(hexahydro-lH-azepin-l-yl)-methyleneamino]penicillanic acid.sodium salt] displayed an AUC in “in vivo [1]” (im) of 105000 ng·h/mL.

The molecule `CO/N=C(\C(=O)N[C@@H]1C(=O)N2C(C(=O)O)=CCS[C@H]12)c1csc(N)n1` [FK-749, cephthizoxime] had an AUC in the series “in vivo [1]” (im) of 77800 ng·h/mL. This AUC and that of the molecule before are within 1.5-fold of each other.

`Cc1nnc(SCC2=C(C(=O)O)N3C(=O)[C@@H](NC(=O)Cn4cnnn4)[C@H]3SC2)s1` [Cefazolin, cefazolin] came in with an area under the curve (AUC) in “in vivo [1]” (im) of 348000 ng·h/mL. For orientation: AUC(0-t) means exposure summed from dosing to a finite time, without extrapolation to infinity. A low value points to low exposure. For `NC(=O)c1cc[n+](CC2=C(C(=O)O)N3C(=O)[C@@H](NC(=O)[C@@H](c4ccccc4)S(=O)(=O)[O-])[C@H]3SC2)cc1` [Cefsulodin sodium, 3-(4-carbamoyl-l-pyridinio-methyl)-7β-(D-α-sulfophenylacetamide)-ceph-3-em-4-carboxylate monosodium salt], the AUC(0-t) at 4 h in series [3] (5 % POE (10) cholesterol ether) came to 30400 ng·h/mL; in series [3] (5 % POE (20) cholesterol ether), 43000 ng·h/mL; in series [3] (5 % POE (25) cholesterol ether) it was 35900 ng·h/mL; in series [3] (5 % POE (30) cholesterol ether), 37900 ng·h/mL; in series [3] (no polyoxyethylene cholesterol ether (None)) it was 500 ng·h/mL. Further, the exposure (AUC) in the series “in vivo [1]” (im) was 54000 ng·h/mL. The molecule `CC1(C)S[C@@H]2[C@H](NC(=O)[C@H](N)c3ccccc3)C(=O)N2[C@H]1C(=O)O` [Ampicillin, ampicillin] displayed an AUC in “in vivo [1]” (im) of 14800 ng·h/mL.

`CN(C)CCn1nnnc1SCC1=C(C(=O)O)N2C(=O)[C@@H](NC(=O)Cc3csc(N)n3)[C@H]2SC1` [Cefotiam, cefotiam] had an AUC in the series “in vivo [1]” (im) of 38700 ng·h/mL. As for `CO/N=C(\C(=O)N[C@@H]1C(=O)N2C(C(=O)O)=C(COC(C)=O)CS[C@H]12)c1csc(N)n1` [HR-756, cefotaxime], the AUC in “in vivo [1]” (im) was found to be 144000 ng·h/mL.
